{
  "source": "patent US4229435A",
  "about": "“Preparation of blood fraction” (priority 1978, dated 1980)",
  "type_in_all_cases": "biochemical",
  "conditions_in_all_cases": "no reducing agent",
  "key": {"F II": {"biological_target": "T1, F II (Homo sapiens, UniProt P00734)", "T1 construct": "from tissue; host or cells: human citrated blood plasma", "assay": "Coagulation factor II activity in plasma after reducing agent + iodoacetic acid", "procedure": "(§1) Human blood with anti-coagulating agent (9 parts blood+1 part 3.8% trisodium citrate) is centrifuged and the following tests with plasma were carried out:\n(§2) The plasma is divided into 8 ml portions, which are preheated at 37° C. for 5 min. DTT is added in different concentrations, see table 1 below, and is incubated for 5 min. at 37° C. Then iodoacetic acid, 3 mol per mol DTT, is added, and incubation takes place for 15 min. at 37° C. The plasma samples are distributed in portions of about 0.2 ml and are immediately frozen at -70° C. Testing of different coagulation factors is made in known manner.\n(§3) The plasma is divided into 8 ml portions, which are preheated at 37° C. for 5 min. DTE is added in different concentrations (see table 2), and is incubated for 5 minutes at 37° C. Then, iodoacetic acid (3 mol per mol DTE) is added and incubation is carried out for 15 minutes at 37° C. The plasma samples are distributed in portions of about 0.2 ml and are immediately frozen at -70° C. Testing of different coagulation factors is made in a manner known per se.\nas §3, with “minutes. Lipoic acid” for “min. DTE”, “3),” for “2),”, “lipoic acid)” for “DTE)”\nas §3, with “minutes. Mercaptoethanol” for “min. DTE”, “4),” for “2),”, “mercaptoethanol)” for “DTE)”\nas §3, with “minutes. Potassium borohydride” for “min. DTE”, “5,” for “2),”, “potassium borohydride)” for “DTE)”"}, "F V": {"biological_target": "T2, F V (Homo sapiens, UniProt P12259)", "T2 construct": "from tissue; host or cells: human citrated blood plasma", "T2 sequence (P12259 29-2224)": "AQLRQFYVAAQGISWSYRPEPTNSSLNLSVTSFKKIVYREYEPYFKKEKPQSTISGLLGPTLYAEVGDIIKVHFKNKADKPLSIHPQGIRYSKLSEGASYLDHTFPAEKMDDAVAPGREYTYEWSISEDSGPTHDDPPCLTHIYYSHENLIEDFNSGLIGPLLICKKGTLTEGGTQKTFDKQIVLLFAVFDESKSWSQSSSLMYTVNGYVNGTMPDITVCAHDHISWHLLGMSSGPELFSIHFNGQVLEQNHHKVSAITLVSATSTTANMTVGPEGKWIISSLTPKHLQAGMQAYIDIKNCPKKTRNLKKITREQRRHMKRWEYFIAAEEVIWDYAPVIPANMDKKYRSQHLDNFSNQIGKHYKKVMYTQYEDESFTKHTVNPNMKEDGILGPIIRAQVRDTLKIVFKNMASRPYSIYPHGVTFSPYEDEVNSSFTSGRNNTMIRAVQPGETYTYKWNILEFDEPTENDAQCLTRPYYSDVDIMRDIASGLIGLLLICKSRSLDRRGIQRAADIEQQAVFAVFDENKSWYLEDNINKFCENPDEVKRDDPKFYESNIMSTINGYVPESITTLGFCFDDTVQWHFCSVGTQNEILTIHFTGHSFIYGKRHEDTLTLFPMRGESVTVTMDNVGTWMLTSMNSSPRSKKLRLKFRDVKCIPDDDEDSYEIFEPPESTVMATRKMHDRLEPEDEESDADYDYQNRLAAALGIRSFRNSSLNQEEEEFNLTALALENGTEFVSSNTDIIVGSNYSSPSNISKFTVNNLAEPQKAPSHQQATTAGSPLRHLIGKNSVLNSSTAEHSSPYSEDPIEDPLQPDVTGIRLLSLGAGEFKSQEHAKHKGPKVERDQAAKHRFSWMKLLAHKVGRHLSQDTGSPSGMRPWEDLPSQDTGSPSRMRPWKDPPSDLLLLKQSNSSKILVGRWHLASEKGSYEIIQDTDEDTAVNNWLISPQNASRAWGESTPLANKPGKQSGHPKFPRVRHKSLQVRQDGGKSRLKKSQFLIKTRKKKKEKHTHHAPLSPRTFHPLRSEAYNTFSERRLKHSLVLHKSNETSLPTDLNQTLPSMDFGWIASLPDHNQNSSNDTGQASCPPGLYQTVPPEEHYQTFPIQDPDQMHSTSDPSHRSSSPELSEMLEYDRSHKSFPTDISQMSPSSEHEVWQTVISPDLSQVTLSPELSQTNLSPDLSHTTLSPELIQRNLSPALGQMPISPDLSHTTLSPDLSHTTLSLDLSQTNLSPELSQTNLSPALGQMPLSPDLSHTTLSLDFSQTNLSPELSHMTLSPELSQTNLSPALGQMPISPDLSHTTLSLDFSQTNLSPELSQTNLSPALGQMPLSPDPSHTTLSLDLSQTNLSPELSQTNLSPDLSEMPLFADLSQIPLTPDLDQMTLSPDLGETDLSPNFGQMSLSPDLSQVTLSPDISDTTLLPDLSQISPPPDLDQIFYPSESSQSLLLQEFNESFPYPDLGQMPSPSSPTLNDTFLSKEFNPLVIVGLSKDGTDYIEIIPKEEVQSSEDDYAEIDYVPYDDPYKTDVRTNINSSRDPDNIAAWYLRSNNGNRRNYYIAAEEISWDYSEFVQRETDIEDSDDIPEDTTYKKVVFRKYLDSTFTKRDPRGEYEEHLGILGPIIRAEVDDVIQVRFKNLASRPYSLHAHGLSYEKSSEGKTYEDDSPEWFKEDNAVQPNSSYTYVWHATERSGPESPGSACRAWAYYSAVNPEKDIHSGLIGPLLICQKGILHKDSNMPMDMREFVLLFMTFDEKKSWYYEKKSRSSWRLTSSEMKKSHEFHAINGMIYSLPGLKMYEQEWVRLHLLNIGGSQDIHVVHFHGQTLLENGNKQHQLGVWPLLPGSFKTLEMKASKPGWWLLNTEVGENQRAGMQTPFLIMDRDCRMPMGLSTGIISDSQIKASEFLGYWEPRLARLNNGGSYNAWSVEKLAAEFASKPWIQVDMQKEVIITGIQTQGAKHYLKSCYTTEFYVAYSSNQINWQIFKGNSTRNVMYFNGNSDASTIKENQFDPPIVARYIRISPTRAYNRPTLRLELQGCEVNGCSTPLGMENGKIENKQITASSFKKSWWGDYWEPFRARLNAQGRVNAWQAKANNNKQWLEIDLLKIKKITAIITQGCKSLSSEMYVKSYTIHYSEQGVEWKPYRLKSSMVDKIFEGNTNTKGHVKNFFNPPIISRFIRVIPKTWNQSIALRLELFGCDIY", "assay": "Coagulation factor V activity in plasma after reducing agent + iodoacetic acid", "procedure": "as §1, §2, §3\nas §3, with “minutes. Lipoic acid” for “min. DTE”, “3),” for “2),”, “lipoic acid)” for “DTE)”\nas §3, with “minutes. Mercaptoethanol” for “min. DTE”, “4),” for “2),”, “mercaptoethanol)” for “DTE)”\nas §3, with “minutes. Potassium borohydride” for “min. DTE”, “5,” for “2),”, “potassium borohydride)” for “DTE)”"}, "F X": {"biological_target": "T3, F X (Homo sapiens, UniProt P00742)", "T3 construct": "from tissue; host or cells: human citrated blood plasma", "T3 sequence (P00742 235-488 limits assumed)": "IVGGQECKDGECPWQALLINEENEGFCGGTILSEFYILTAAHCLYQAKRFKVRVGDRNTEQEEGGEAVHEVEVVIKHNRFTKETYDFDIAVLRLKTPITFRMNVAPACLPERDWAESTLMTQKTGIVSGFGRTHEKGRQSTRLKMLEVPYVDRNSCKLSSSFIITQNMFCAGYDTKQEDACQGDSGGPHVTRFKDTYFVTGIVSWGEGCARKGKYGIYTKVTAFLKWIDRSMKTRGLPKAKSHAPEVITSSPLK", "T3 sequence (P00742 41-179 limits assumed)": "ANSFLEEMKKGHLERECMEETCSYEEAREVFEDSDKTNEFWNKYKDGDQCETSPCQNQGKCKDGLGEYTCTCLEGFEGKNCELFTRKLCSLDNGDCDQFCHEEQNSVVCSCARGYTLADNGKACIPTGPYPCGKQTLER", "assay": "Coagulation factor X activity in plasma after reducing agent + iodoacetic acid", "procedure": "as §1, §2, §3\nas §3, with “minutes. Lipoic acid” for “min. DTE”, “3),” for “2),”, “lipoic acid)” for “DTE)”\nas §3, with “minutes. Mercaptoethanol” for “min. DTE”, “4),” for “2),”, “mercaptoethanol)” for “DTE)”\nas §3, with “minutes. Potassium borohydride” for “min. DTE”, “5,” for “2),”, “potassium borohydride)” for “DTE)”"}, "[1]": {"conditions": "Table 1 B: control plasma + iodoacetic acid, same amount as in F"}, "[2]": {"conditions": "Table 2 B: control plasma + iodoacetic acid, same amount as in E"}, "[3]": {"conditions": "Table 3 B: control plasma + iodoacetic acid, same amount as in E"}, "[4]": {"conditions": "Table 4 B: control plasma + iodoacetic acid, same amount as in D"}, "[5]": {"conditions": "Table 5 B: control plasma + iodoacetic acid, same amount as in D"}},
  "data": [
    {"molecule": "O=C(O)CI", "note": "[iodoacetic acid]", "values": [
      {"measurement": "Coagulation factor F II", "setting": "F II; [1]", "value": "99 % of control"},
      {"measurement": "Coagulation factor F II", "setting": "F II; [2]", "value": "100 % of control"},
      {"measurement": "Coagulation factor F II", "setting": "F II; [3]", "value": "100 % of control"},
      {"measurement": "Coagulation factor F II", "setting": "F II; [4]", "value": "88 % of control"},
      {"measurement": "Coagulation factor F II", "setting": "F II; [5]", "value": "88 % of control"},
      {"measurement": "Coagulation factor F V", "setting": "F V; [1]", "value": "95 % of control"},
      {"measurement": "Coagulation factor F V", "setting": "F V; [2]", "value": "105 % of control"},
      {"measurement": "Coagulation factor F V", "setting": "F V; [3]", "value": "105 % of control"},
      {"measurement": "Coagulation factor F V", "setting": "F V; [4]", "value": "67 % of control"},
      {"measurement": "Coagulation factor F V", "setting": "F V; [5]", "value": "67 % of control"},
      {"measurement": "Coagulation factor F X", "setting": "F X; [1]", "value": "96 % of control"},
      {"measurement": "Coagulation factor F X", "setting": "F X; [2]", "value": "87 % of control"},
      {"measurement": "Coagulation factor F X", "setting": "F X; [3]", "value": "87 % of control"},
      {"measurement": "Coagulation factor F X", "setting": "F X; [4]", "value": "86 % of control"},
      {"measurement": "Coagulation factor F X", "setting": "F X; [5]", "value": "86 % of control"}
    ]}
  ]
}
